# Columns and labels:
# Assay type in all cases: cell-based, Human papilloma virus
# HPV 16 = HPV 16 episome DNA levels in W12E cells by Q-PCR (Taqman); details: for IC50: effective (pseudo) IC50, 50% reduction in HPV DNA relative to vehicle (0.1% DMSO), read-out: HPV-16 IC50; for effect on absolute HPV 16 DNA levels: higher doses, in some experiments, FIG. 3
# Description: Cells maintaining HPV 16 DNA were cultured for 72 hours in the presence of cidofovir, interferon γ or polyamide. Viral DNA was then quantified using real-time PCR and compared to vehicle (DMSO)-treated control cultures.
# Compounds were initially tested for effects on HPV 16 episome DNA levels in W12E cells by Q-PCR (Taqman™) over 3 concentration ranges (0.1, 1 and 10 μM). W12E cells are a cervical keratinocyte cell line originally identified by M. Stanley (Cambridge University), and later optimized and provided by P. Lambert (U. of Wisconsin). […] In all cases (initial tests and follow-up IC50 tests), dose testing was performed in triplicate. […] Furthermore, all experiments were conducted in triplicate, multiple times. The data were then combined, pseudo or effective IC50 values calculated, and variance determined to reveal the fit of the data to the model and its reliability.
# Keratinocytes that maintain HPV 16 episomes were treated with increasing concentrations of polyamides.
# HPV31 = HPV31 DNA levels in keratinocytes by real-time PCR; details: effective (pseudo) IC50
# Description: (§1) Human keratinocytes, including those maintaining HPV episomes, are cultured on mitomycin C-treated J2 3T3 cells in media containing three parts Dulbecco's modified Eagle medium (DMEM) and one part F12 media, our modification of published methods (Rheinwald and Green, 1975). Media (E Media) is supplemented with 0.4 μg/mL hydrocortisone, 10 ng/mL cholera toxin, 5 μg/mL insulin, 24 μg/mL adenine, 5 μg/mL transferrin, […] (T3), 10 ng/mL epidermal growth factor (EGF), 1% penicillin-streptomycin, and 5% fetal bovine serum (FBS). All cells are passaged at 70% confluency at a split ratio of 1:5.
# (§2) Polyamides for HPV 18 are dissolved at 10 mM in 100% DMSO and diluted with H2O to 1 mM. Polyamides are added to cells in E media at final concentrations of 0.1-10 μM, with final DMSO concentrations of 0.1%. As controls, cells are incubated with normal E media and E media containing the “vehicle” 0.1% DMSO. The HPV DNA levels are then quantified according to previously published procedures (Garner-Hamrick and Fisher, Virology, 301, 334-41, 2002). After incubation, cells are harvested from the plates by either trypsinization or direct lysis with proteinase K digestion buffer (PK buffer: 100 mM NaCl, 10 mM Tris pH 8, 25 mM EDTA, 0.5% SDS, 0.1 mg/mL proteinase K). Trypsinized cells are counted on a hemocytometer and pelleted by centrifugation. Episomal HPV is isolated by the Hirt method (Hirt, 1967) and cell pellets are lysed in 0.6% SDS with 10 mM EDTA. NaCl is next added to a final concentration of 1 M. Following an overnight incubation at 4° C., precipitates containing the chromosomal DNA are spun down and episomal DNA precipitated by the addition of isopropanol. Cells lysed directly in PK buffer are transferred to microfuge tubes and incubated at 50° C. for 2 h. Lysates are then extracted with phenol/chloroform/isoamyl alcohol and spun through a phase lock gel (Eppendorf, Hamburg, Germany). Total DNA is then precipitated with 0.3 M NaOAc and 2.5 vol. ethanol and resuspended in Tris-EDTA (TE) buffer.
# HPV31 primers-probe sets for PCR were also designed within the L1 gene:
# (§3) All primers and probes are synthesized and HPLC purified by Applied Biosystems (Foster City, Calif.). The HPV probes are labeled with the 5′ reporter dye FAM (6-carboxy-fluorescein) and the 3′ quencher dye TAMRA (6-carboxytetramethyl-rhodamine). A standard curve is generated using a range of 10^8 to 10 copies/reaction of cloned, genomic HPV31 or HPV18 DNA using the following formula: (1.82×10^15)(μg/μL stock DNA)/(length in base pairs)(2)=copies/μL stock DNA. PCR reactions contain final concentrations of 1× Universal Master Mix (PE Applied Biosystems), 200 nM of each primer, and 250 nM probe (PE Applied Biosystems) in a reaction volume of 25 μL. Each Hirt-isolated DNA sample is analyzed in triplicate reactions for episomal HPV. Copies/reaction are determined from the standard curve, and copies/cell determined according to the following formula: (copies/reaction)×(DNA dilution)/(total # cells)=copies/cell.
# HPV18 = HPV18 DNA levels in keratinocytes by real-time PCR; details: effective (pseudo) IC50
# Description: as §1, §2
# Viral DNA levels are next quantified according to variations on our previously published methods (Garner-Hamrick and Fisher, Virology, 301, 334-41, 2002). Quantitative PCR is performed using Real-Time PCR technology on an ABI PRISM 7700 Sequence Detector. All primers and probes were designed using Primer Express 1.0 (ABI). For HPV 18, PCR primer-probe sets were designed within the L1 gene:
# as §3
Compound,IC50 (HPV 16),IC50 (HPV31),IC50 (HPV18),effect on absolute HPV 16 DNA levels (HPV 16)
"CN(C)CCCNC(=O)CCNC(=O)c1cc(NC(=O)CCNC(=O)c2cc(NC(=O)c3cc(NC(=O)c4cc(NC(=O)CCNC(=O)c5cc(NC(=O)c6cc(NC(=O)CCCNC(=O)CCNC(=O)c7cc(NC(=O)c8cc(NC(=O)CCNC(=O)c9cc(NC(=O)c%10cc(NC(=O)c%11cc(NC(=O)c%12nccn%12C)cn%11C)cn%10C)cn9C)cn8C)cn7C)cn6C)cn5C)cn4C)cn3C)cn2C)cn1C [Polyamide 1022, ImPPPβPPβγPPβPPPβPβDp]",> 1000 nM,≥ 1000 nM,,
ImPPPβPPβPPPγNH2PPPβPPPβPPPβDp [Polyamide 1003],100 to 1000 nM,100 to 1000 nM,100 to 1000 nM,
"CN(CCCN)CCCNC(=O)CCNC(=O)c1cc(NC(=O)CCNC(=O)c2cc(NC(=O)c3cc(NC(=O)c4cc(NC(=O)CCNC(=O)c5cc(NC(=O)c6cc(NC(=O)[C@H](N)CCNC(=O)CCNC(=O)c7cc(NC(=O)c8cc(NC(=O)CCNC(=O)c9cc(NC(=O)c%10cc(NC(=O)c%11cc(NC(=O)c%12nccn%12C)cn%11C)cn%10C)cn9C)cn8C)cn7C)cn6C)cn5C)cn4C)cn3C)cn2C)cn1C [Polyamide 1032, ImPPPβPPβγNH2PPβPPPβPβTa]",100 to 1000 nM,100 to 1000 nM,,
"CN(CCCN)CCCNC(=O)CCNC(=O)CCNC(=O)c1cc(NC(=O)c2cc(NC(=O)c3cc(NC(=O)CCNC(=O)c4cc(NC(=O)c5cc(NC(=O)c6cc(NC(=O)CCCNC(=O)c7cc(NC(=O)c8cc(NC(=O)c9cc(NC(=O)CCNC(=O)c%10cc(NC(=O)c%11cc(NC(=O)c%12cc(NC(=O)c%13nccn%13C)cn%12C)cn%11C)cn%10C)cn9C)cn8C)cn7C)cn6C)cn5C)cn4C)cn3C)cn2C)cn1C [Polyamide 1031, ImPPPβPPPγPPPβPPPββTa]",100 to 1000 nM,100 to 1000 nM,100 to 1000 nM,nearly complete elimination of detectable viral DNA
"CN(CCCN)CCCNC(=O)CCNC(=O)CCNC(=O)c1cc(NC(=O)c2cc(NC(=O)c3cc(NC(=O)CCNC(=O)c4cc(NC(=O)c5cc(NC(=O)c6cc(NC(=O)C(N)CCNC(=O)c7cc(NC(=O)c8cc(NC(=O)c9cc(NC(=O)CCNC(=O)c%10cc(NC(=O)c%11cc(NC(=O)c%12cc(NC(=O)c%13nccn%13C)cn%12C)cn%11C)cn%10C)cn9C)cn8C)cn7C)cn6C)cn5C)cn4C)cn3C)cn2C)cn1C (stereo not shown) [Polyamide 1033, ImPPPβPPPγNH2PPPβPPPββTa]",> 1000 nM,≥ 1000 nM,,
ImPPβPPPγNH2PPβPPPPβDp [Polyamide 1024],> 1000 nM,100 to 1000 nM,≥ 1000 nM,
"CN(C)CCCNC(=O)CCNC(=O)c1cc(NC(=O)c2cc(NC(=O)c3cc(NC(=O)CCNC(=O)c4cc(NC(=O)c5cc(NC(=O)c6cc(NC(=O)CCNC(=O)c7cc(NC(=O)c8cc(NC(=O)CCCNC(=O)c9cc(NC(=O)c%10cc(NC(=O)CCNC(=O)c%11nc(NC(=O)c%12cc(NC(=O)c%13cc(NC(=O)CCNC(=O)c%14cc(NC(=O)c%15cc(NC(=O)c%16nccn%16C)cn%15C)cn%14C)cn%13C)cn%12C)cn%11C)cn%10C)cn9C)cn8C)cn7C)cn6C)cn5C)cn4C)cn3C)cn2C)cn1C [Polyamide 1040, ImPPβPPIβPPγPPβPPPβPPPβDp]",100 to 1000 nM,100 to 1000 nM,100 to 1000 nM,
"CN(CCCN)CCCNC(=O)CCNC(=O)c1cc(NC(=O)c2cc(NC(=O)c3cc(NC(=O)CCNC(=O)c4cc(NC(=O)c5cc(NC(=O)c6cc(NC(=O)CCNC(=O)c7cc(NC(=O)c8cc(NC(=O)[C@H](N)CCNC(=O)c9cc(NC(=O)c%10cc(NC(=O)CCNC(=O)c%11nc(NC(=O)c%12cc(NC(=O)c%13cc(NC(=O)CCNC(=O)c%14cc(NC(=O)c%15cc(NC(=O)c%16nccn%16C)cn%15C)cn%14C)cn%13C)cn%12C)cn%11C)cn%10C)cn9C)cn8C)cn7C)cn6C)cn5C)cn4C)cn3C)cn2C)cn1C [Polyamide 1067, ImPPβPPIβPPγNH2PPβPPPβPPPβTa]",100 to 1000 nM,100 to 1000 nM,100 to 1000 nM,
"CN(CCCN)CCCNC(=O)CCNC(=O)c1cc(NC(=O)c2cc(NC(=O)c3cc(NC(=O)CCNC(=O)c4cc(NC(=O)c5cc(NC(=O)c6cc(NC(=O)CCNC(=O)c7cc(NC(=O)CCNC(=O)CCCNC(=O)c8nc(NC(=O)c9cc(NC(=O)c%10cc(NC(=O)CCNC(=O)c%11cc(NC(=O)c%12nc(NC(=O)c%13cc(NC(=O)CCNC(=O)c%14cc(NC(=O)c%15cc(NC(=O)c%16nccn%16C)cn%15C)cn%14C)cn%13C)cn%12C)cn%11C)cn%10C)cn9C)cn8C)cn7C)cn6C)cn5C)cn4C)cn3C)cn2C)cn1C [Polyamide 1045, ImPPβPIPβPPIγβPβPPPβPPPβTa]",> 1000 nM,≥ 1000 nM,100 to 1000 nM,
"CN(CCCN)CCCNC(=O)CCNC(=O)c1cc(NC(=O)c2cc(NC(=O)c3cc(NC(=O)CCNC(=O)c4cc(NC(=O)c5cc(NC(=O)c6cc(NC(=O)CCNC(=O)c7cc(NC(=O)c8cc(NC(=O)[C@@H](CCN)NC(=O)c9cc(NC(=O)c%10cc(NC(=O)CCNC(=O)c%11nc(NC(=O)c%12cc(NC(=O)c%13cc(NC(=O)CCNC(=O)c%14cc(NC(=O)c%15cc(NC(=O)c%16nccn%16C)cn%15C)cn%14C)cn%13C)cn%12C)cn%11C)cn%10C)cn9C)cn8C)cn7C)cn6C)cn5C)cn4C)cn3C)cn2C)cn1C [Polyamide 1049, ImPPβPPIβPPγNH2PPβPPPβPPPβTa]",100 to 1000 nM,≥ 1000 nM,100 to 1000 nM,
ImPPPβPPβPPPγPPPβPPPβPPPβDp [Polyamide 1004],100 to 1000 nM,100 to 1000 nM,≤ 100 nM,nearly complete elimination of detectable viral DNA
"CN(C)CCCNC(=O)CCNC(=O)c1cc(NC(=O)c2cc(NC(=O)c3cc(NC(=O)c4cc(NC(=O)CCNC(=O)c5cc(NC(=O)c6cc(NC(=O)CCCNC(=O)c7cc(NC(=O)c8cc(NC(=O)c9cc(NC(=O)CCNC(=O)c%10cc(NC(=O)c%11cc(NC(=O)c%12nccn%12C)cn%11C)cn%10C)cn9C)cn8C)cn7C)cn6C)cn5C)cn4C)cn3C)cn2C)cn1C [Polyamide 1023, ImPPβPPPγPPβPPPPβDp]",> 1000 nM,≥ 1000 nM,,
"CN(CCCN)CCCNC(=O)CCNC(=O)c1cc(NC(=O)c2cc(NC(=O)c3cc(NC(=O)CCNC(=O)c4cc(NC(=O)c5cc(NC(=O)c6cc(NC(=O)CCNC(=O)c7cc(NC(=O)c8cc(NC(=O)CCCNC(=O)c9cc(NC(=O)c%10cc(NC(=O)CCNC(=O)c%11nc(NC(=O)c%12cc(NC(=O)c%13cc(NC(=O)CCNC(=O)c%14cc(NC(=O)c%15cc(NC(=O)c%16nccn%16C)cn%15C)cn%14C)cn%13C)cn%12C)cn%11C)cn%10C)cn9C)cn8C)cn7C)cn6C)cn5C)cn4C)cn3C)cn2C)cn1C [Polyamide 1042, ImPPβPPIβPPγPPβPPPβPPPβTa]",,≤ 100 nM,,
ImPPPβPPPγNH2PPPβPPPββDp [Polyamide 1026],100 to 1000 nM,100 to 1000 nM,,

# — patent US9290551B2, “Compounds for treating papilloma virus infection” (NanoVir, LLC, priority 2012, dated 2016)
